The text below walks through data of PMC9693918, “May Sulfonamide Inhibitors of Carbonic Anhydrases from Mammaliicoccus sciuri Prevent Antimicrobial Resistance Due to Gene Transfer to Other Harmful Staphylococci?” (International Journal of Molecular Sciences, 2022).

In one assay the target is T1, MscCAγ (M. sciuri γ-CA) (Mammaliicoccus sciuri, UniProt A0AB37HNM1).
T1 construct: gene OWO77_11715
T1 sequence (A0AB37HNM1 1-169): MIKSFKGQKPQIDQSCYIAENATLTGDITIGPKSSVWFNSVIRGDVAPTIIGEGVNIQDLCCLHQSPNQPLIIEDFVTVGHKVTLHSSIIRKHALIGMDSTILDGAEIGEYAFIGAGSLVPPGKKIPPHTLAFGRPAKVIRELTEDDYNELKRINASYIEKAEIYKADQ
As to the kind of experiment: stopped-flow CO2 hydration assay, phenol red. The assay is classed as biochemical.
Conditions: not given
From the text: stopped-flow CO2 hydration assay, phenol red on MscCAγ (M. sciuri γ-CA)
Take `NCCc1ccc(S(N)(=O)=O)cc1` [compound 6, 6]: the Ki amounted to 176 nM.

The assay is the same for the next values; noted with them: read-out: KI (nM) ^a / MscCAγ.
As for `CCN[C@H]1CN(CCCOC)S(=O)(=O)c2sc(S(N)(=O)=O)cc21` [BRZ], the Ki is 100 nM.

For `NS(=O)(=O)c1nnc(NS(=O)(=O)c2ccccc2)s1` [BZA], the Ki amounted to 444 nM. For the compound `Cc1ccc(-c2cc(C(F)(F)F)nn2-c2ccc(S(N)(=O)=O)cc2)cc1` [CLX], the Ki was determined as 3020 nM.

As to `NS(=O)(=O)c1cc(Cl)c(Cl)c(S(N)(=O)=O)c1` [DCP], the Ki came out at 8580 nM. Regarding `NS(=O)(=O)c1cc2c(cc1Cl)NCNS2(=O)=O` [HCT], the Ki worked out at 18300 nM. Still for that read-out and setting: next, `NS(=O)(=O)c1ccc(S(=O)(=O)Nc2cccc3c(Cl)c[nH]c23)cc1` [IND]: 369 nM; `CC(=O)N=c1sc(S(N)(=O)=O)nn1C` [MZA]: 94.5 nM. For the compound `O=C1NS(=O)(=O)c2ccccc21` [SAC], the Ki came to 29700 nM. In the case of `CCN1CCCC1CNC(=O)c1cc(S(N)(=O)=O)ccc1OC` (stereo not shown) [SLP], the Ki is 2200 nM.

In the case of `NS(=O)(=O)c1ccc(N2CCCCS2(=O)=O)cc1` [SLT], the Ki came out at 405 nM. With `CC1(C)O[C@@H]2[C@@H](CO[C@@]3(COS(N)(=O)=O)OC(C)(C)O[C@@H]23)O1` [TPM], the Ki was 578 nM. Turning to `Cc1onc(-c2ccccc2)c1-c1ccc(S(N)(=O)=O)cc1` [VLX], the Ki was 1540 nM. The same measure, in the same setting: next, `NS(=O)(=O)Cc1noc2ccccc12` [ZNS]: 923 nM. On the same count and under the same terms, the value for `NS(=O)(=O)c1ccc(CCNS(=O)(=O)c2ccc([N+](=O)[O-])cc2CO)cc1` [compound 21, 21] was 83.4 nM; that for `Nc1ccc(S(=O)(=O)Nc2ccc(S(N)(=O)=O)cc2)cc1` [compound 22, 22] was 72.5 nM.
